Reference: patent US20020068271A1, “Methods for identifying agents capable of modulating protein kinase C theta (PKC0) activity” (priority 1999, published 2002)
Entries after “also recorded” stand apart in the source; their conditions may differ. Residues, ends and D or L forms follow the SMILES beside them. *: point of attachment. Cbz = O=C(OCc1ccccc1)*

Key:
[1] = system: PKCθ-A/E-induced CD28RE/AP-1; assay: CD28RE/AP-1-Luc reporter induced by constitutively active PKCθ-A/E in Jurkat cells; format: cell-based, human; conditions: cultured 16 hr, MG132 0, 5, 10, 20 μM (FIG. 5b)
Protocol: (§1) Jurkat cells were transfected with an empty vector (−) or constitutively active PKCθ (10 μg) together with NF-κB-Luc (FIG. 5a) CD28RE/AP-1-Luc (FIG. 5b), or AP-1-Luc (FIG. 5c) reporter constructs (5 μg each). The cells were cultured for 16 hr with the indicated concentrations of the […] MG132 (0, 5, 10, 20 μM), lysed, and luciferase activity was quantified. FIG. 5d: Jurkat cells were transfected with wild type IKKα (5 μg) or IKKβ (2 μg) together with an empty vector (0) or increasing amounts of constitutively active PKCθ. Twenty-four hr later, the cells were stimulated with anti-CD3/CD28 antibodies or with TNFα. Immunoprecipitated IKKα or IKKβ were subjected to an in vitro kinase assay. Phosphorylated GST-IκBα/1-62 was detected by autoradiography (top panels). […] After 24 hr, cells were lysed and normalized luciferase activity was determined. FIG. 5f: The expression level of the transfected IKKs or PKCθ was assessed by Western blotting using c-Myc-(IKKα), Flag-(IKKβ), or PKCθ-specific antibodies.
(§2) Cell Culture, Transfection, and Reporter Assays. […] Transfected Jurkat cells were harvested after 24 hr, washed twice with PBS, lysed, and luciferase or β-galactosidase activities were determined. The results were expressed as arbitrary luciferase units normalized to β-galactosidase activity in the same cells. […]

PKCθ-A/E-induced NF-κB = assay: NF-κB-Luc reporter induced by constitutively active PKCθ-A/E in Jurkat cells; format: cell-based, human; conditions: cultured 16 hr, MG132 0, 5, 10, 20 μM (FIG. 5a)
Protocol: as §1, §2

PKCθ [2] = molecular target: T1, PKCθ (Homo sapiens, UniProt Q04759); assay: In vitro kinase assay of immunoprecipitated PKCθ (MBP substrate); format: biochemical; parameters: expressed in transfected cells; host or cells: Jurkat (E6.1) human leukemic T cells; conditions: immunoprecipitated PKCθ from wild-type PKCθ-transfected Jurkat T cells, inhibitor added to kinase reaction (FIG. 4c)
T1 sequence (Q04759 whole entry): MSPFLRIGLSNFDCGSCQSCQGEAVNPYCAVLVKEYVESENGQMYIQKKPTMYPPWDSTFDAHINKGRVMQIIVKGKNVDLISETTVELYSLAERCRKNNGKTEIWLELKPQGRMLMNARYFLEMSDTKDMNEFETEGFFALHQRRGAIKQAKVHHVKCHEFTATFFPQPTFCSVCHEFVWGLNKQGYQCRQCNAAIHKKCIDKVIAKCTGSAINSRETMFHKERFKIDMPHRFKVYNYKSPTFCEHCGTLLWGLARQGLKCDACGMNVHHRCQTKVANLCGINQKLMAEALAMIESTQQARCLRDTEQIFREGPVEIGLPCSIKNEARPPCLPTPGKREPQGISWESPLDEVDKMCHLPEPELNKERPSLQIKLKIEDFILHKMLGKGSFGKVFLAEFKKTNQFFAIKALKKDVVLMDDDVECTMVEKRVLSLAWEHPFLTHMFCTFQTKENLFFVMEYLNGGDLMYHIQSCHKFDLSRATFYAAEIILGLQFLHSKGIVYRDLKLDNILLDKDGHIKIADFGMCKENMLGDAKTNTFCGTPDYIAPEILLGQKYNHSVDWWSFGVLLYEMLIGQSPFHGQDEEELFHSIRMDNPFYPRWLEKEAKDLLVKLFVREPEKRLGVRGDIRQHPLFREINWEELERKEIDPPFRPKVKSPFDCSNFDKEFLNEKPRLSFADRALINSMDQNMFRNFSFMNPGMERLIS
Protocol: (§3) FIG. 4a: Jurkat T cells were cotransfected with CD28RE/AP-1-Luc (10 μg) and β-galactosidase plasmid (2 μg) reporters. Twenty hr later, cells were stimulated for 10 min with CD3- plus CD28-specific antibodies, in the presence or absence of rottlerin (Rott; 30 μM) or Gö6976 (Gö; 0.5 μM). Luciferase activity in cell lysates was determined. FIG. 4b Jurkat cells were incubated (15 min at 37° C.) in the absence or presence of rottlerin or Gö6976, and then stimulated with anti-CD3/CD28 antibodies or with TNFα (10 ng/ml) for the indicated times. Nuclear and cytoplasmic extracts were prepared, and protein from each fraction (5 μg) was analyzed by Western blotting with an anti-RelA antibody. FIG. 4c: Wild-type PKCθ-transfected Jurkat T cells were stimulated as in (a). Cell lysates were immunoprecipitated (IP) with normal rabbit serum (NRS) or with an anti-PKCθ antibody, and the in vitro enzymatic activity of PKCθ was measured in the presence or absence of rottlerin or Gö6976 (top panel). The membrane was immunoblotted with a PKCθ-specific antibody (bottom panel).
Kinase Assays. […] ATP incorporation was determined using a STORM 860™ PhosphorImager (Molecular Dynamics). […]

T cells = assay: Fas-mediated T cell apoptosis; format: cell-based
Source text: PKCθ mediates a selective T cell survival signal via phosphorylation of BAD, a Bcl-2 family member. PKC-activating phorbol esters protect various cell types, including T cells, from apoptosis induced by the interaction of Fas with its ligand. However, before the instant invention, the mechanism of this protective effect as well as the identity of the PKC isoform(s) involved in this process were poorly understood. Studies analyzed the role of PKCθ selectively expressed in T lymphocytes in protecting T cells from Fas-mediated apoptosis. […] These events preceded the onset of cell apoptosis. […] Thus, the invention provides methods for identifying inhibitors of PKCθ activity by determining the ability of a test agent to inhibit PKCθ selective protection of T cells from Fas-mediated apoptosis.

[3] = system: CD28RE/AP-1 element of the IL-2 promoter; assay: CD28RE/AP-1-Luc reporter assay, anti-CD3/CD28-stimulated Jurkat T cells; format: cell-based; conditions: Homo sapiens, read-out: inhibition of anti-CD3/CD28-stimulated activity of CD28RE/AP-1
Protocol: as §3
Cell Culture, Transfection, and Reporter Assays. […] Transfected Jurkat cells were harvested after 24 hr, washed twice with PBS, lysed, and luciferase or β-galactosidase activities were determined. The results were expressed as arbitrary luciferase units normalized to β-galactosidase activity in the same cells.

PKCθ [4] = molecular target: T1, PKCθ; conditions: in vitro and in intact T cells; cited from earlier work
TNFα-induced NF-κB = assay: NF-κB activity induced by TNFα in Jurkat cells; format: cell-based, human; conditions: TNFα 10 ng/ml (FIG. 4b)
Protocol: as §3
(§4) Subcellular Fractionation. To determine PKCθ redistribution, cells were fractionated into cytosolic or membrane fractions as described by Meller (1996) Mol. Cell. Biol. 16:5782-5791; and, SDS-PAGE-resolved proteins were immunoblotted with an HRP-conjugated anti-PKCθ monoclonal antibody (Transduction Laboratories). […]

BAD (Ser-136, Ser-112) = assay: Phosphorylation of BAD induced by Fas or combined CD3/CD28 ligation; format: cell-based
Source text: Thus, the invention provides methods for identifying inhibitors of PKCθ activity by determining the ability of a test agent to inhibit BAD phosphorylation by PKCθ or a BAD activity.

[5] = system: NF-κB RelA (p65) nuclear translocation; assay: Nuclear translocation of RelA (p65) after anti-CD3/CD28 stimulation, Western blot of nuclear/cytoplasmic extracts; format: cell-based, human; conditions: Jurkat cells preincubated 15 min at 37° C., anti-CD3/CD28 stimulation (FIG. 4b)
Protocol: as §3, §4

Compound	PKCθ-A/E-induced activation of CD28RE/AP-1 [1]	PKCθ-A/E-induced activation of NF-κB (PKCθ-A/E-induced NF-κB)	inhibition of CD3/CD28-induced PKCθ activity (PKCθ [2])	synergy with an anti-Fas antibody to induce rapid T cell apoptosis (T cells)	inhibition at 30 µM [3] [%]	inhibition of PKCθ function (PKCθ [4])	inhibition of NF-κB activity induced by TNFα (TNFα-induced NF-κB)	phosphorylation of BAD on Ser-136 (and to a lesser extent on Ser-112) (BAD (Ser-136, Ser-112))	receptor-stimulated nuclear translocation of RelA (p65) [5]
CC(C)C[C@@H](C=O)NC(=O)[C@H](CC(C)C)NC(=O)[C@H](CC(C)C)NC(=O)OCc1ccccc1 [MG132] (Cbz-Leu-Leu-Leu-aldehyde)	blocked in a dose-dependent manner; also recorded: inhibited	blocked in a dose-dependent manner							
CC(=O)c1c(O)c(C)c(O)c(Cc2c(O)c3c(c(C(=O)/C=C/c4ccccc4)c2O)OC(C)(C)C=C3)c1O [rottlerin]			considerably more effective than Gö6976	synergized	~80	inhibits PKCθ function	did not inhibit	selectively blocked	essentially blocked
